What is called IC50 is the midpoint of a concentration-inhibition curve.

This experiment concerns the target Nav 1.7 (Homo sapiens (Human), UniProt Q15858). Briefly: in-vitro Nav 1.7 PX (IC50). The experiment is classed as cell-based.
Setting [1] is: in-vitro Nav 1.7 PX data (PatchXpress).

SMILES strings stand for the structures. Where two headings read alike, the source gives them in different places.

Chain of Nav 1.7 (Q15858 whole entry): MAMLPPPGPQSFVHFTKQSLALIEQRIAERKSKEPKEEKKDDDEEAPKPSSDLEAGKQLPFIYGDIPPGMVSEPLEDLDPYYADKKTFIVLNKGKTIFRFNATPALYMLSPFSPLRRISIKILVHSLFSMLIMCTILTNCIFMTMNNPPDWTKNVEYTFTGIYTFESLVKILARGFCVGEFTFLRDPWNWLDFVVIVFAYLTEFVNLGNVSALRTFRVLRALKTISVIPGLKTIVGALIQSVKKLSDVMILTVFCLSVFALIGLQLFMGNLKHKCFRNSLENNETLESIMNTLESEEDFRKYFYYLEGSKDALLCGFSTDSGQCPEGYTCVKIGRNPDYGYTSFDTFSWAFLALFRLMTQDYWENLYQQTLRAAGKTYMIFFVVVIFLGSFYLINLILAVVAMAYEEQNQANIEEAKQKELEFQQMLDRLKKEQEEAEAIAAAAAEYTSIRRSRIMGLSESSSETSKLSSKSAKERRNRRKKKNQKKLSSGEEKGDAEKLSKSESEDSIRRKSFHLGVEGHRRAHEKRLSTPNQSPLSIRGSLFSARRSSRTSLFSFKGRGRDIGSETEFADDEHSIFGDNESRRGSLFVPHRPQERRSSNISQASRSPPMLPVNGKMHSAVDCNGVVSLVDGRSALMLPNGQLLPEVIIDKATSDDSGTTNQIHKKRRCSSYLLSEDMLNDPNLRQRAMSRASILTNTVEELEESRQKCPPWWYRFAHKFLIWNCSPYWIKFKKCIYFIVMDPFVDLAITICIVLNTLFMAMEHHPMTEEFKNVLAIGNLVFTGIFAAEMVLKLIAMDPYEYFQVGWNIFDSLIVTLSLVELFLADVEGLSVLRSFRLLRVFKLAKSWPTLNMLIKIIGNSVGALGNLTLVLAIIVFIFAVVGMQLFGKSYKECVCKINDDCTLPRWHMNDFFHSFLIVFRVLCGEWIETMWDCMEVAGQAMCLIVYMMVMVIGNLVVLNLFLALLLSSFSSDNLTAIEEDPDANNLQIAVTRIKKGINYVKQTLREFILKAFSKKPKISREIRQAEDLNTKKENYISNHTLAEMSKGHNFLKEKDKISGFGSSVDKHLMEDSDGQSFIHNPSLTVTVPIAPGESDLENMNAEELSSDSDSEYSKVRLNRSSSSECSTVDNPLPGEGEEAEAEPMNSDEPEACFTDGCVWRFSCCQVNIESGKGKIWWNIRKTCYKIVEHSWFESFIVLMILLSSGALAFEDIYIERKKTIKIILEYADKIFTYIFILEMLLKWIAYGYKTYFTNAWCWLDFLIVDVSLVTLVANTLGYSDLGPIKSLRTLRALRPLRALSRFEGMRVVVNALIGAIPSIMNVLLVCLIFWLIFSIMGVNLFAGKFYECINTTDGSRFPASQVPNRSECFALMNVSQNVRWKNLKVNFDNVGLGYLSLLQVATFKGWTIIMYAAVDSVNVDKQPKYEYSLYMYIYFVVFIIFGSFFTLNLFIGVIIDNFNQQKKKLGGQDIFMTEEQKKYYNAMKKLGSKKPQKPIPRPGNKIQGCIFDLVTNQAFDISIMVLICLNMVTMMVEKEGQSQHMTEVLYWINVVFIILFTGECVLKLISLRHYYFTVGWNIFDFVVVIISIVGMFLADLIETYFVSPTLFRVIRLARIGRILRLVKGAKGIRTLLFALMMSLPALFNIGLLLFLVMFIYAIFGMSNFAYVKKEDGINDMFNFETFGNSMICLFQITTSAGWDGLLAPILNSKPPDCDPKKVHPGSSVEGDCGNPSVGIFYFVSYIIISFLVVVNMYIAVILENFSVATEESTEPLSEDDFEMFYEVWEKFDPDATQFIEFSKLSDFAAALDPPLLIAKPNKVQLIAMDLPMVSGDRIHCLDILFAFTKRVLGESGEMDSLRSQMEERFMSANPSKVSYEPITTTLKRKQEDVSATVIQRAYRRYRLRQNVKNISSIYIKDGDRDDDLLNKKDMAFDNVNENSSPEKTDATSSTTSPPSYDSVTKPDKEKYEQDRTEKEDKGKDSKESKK

On to `COc1cc(-c2cc(Cl)cc(Cl)c2)ccc1-n1c(=O)ccc2cc(S(=O)(=O)Nc3ccon3)ccc21` [Example 1023, 1-(3′,5′-dichloro-3-methoxy-4-biphenylyl)-N-3-isoxazolyl-2-oxo-1,2-dihydro-6-quinolinesulfonamide], for which the IC50 (in-vitro Nav 1.7 PX data) turned out to be 0.009 µM.

`COc1cc(-c2cnc(OC)c(Cl)c2)c(F)cc1-n1c(=O)ccc2cc(S(=O)(=O)Nc3ccc(F)cn3)ccc21` (atropisomer, axis not shown; (P)) [Example 1161, (P)-1-(4-(5-chloro-6-methoxy-3-pyridinyl)-5-fluoro-2-methoxyphenyl)-N-(5-fluoro-2-pyridinyl)-2-oxo-1,2-dihydro-6-quinolinesulfonamide]: the IC50 (in-vitro Nav 1.7 PX data, Table 4) was found to be 0.02 µM.

Turning to `COc1ccc(Cl)c(-c2ccc(-n3c(=O)ccc4cc(S(=O)(=O)Nc5ccon5)ccc43)c(OC)c2)c1` [Example 1031, 1-(2′-chloro-3,5′-dimethoxy-4-biphenylyl)-N-3-isoxazolyl-2-oxo-1,2-dihydro-6-quinolinesulfonamide], inhibition under setting [1] was half-maximal at 0.025 µM (IC50). In other words, the double-digit nanomolar range.

Molecule `COc1cc(-c2cccc(C)c2C)ccc1-n1c(=O)ccc2cc(S(=O)(=O)Nc3ccon3)ccc21` [Example 1056, N-3-isoxazolyl-1-(3-methoxy-2′,3′-dimethyl-4-biphenylyl)-2-oxo-1,2-dihydro-6-quinolinesulfonamide] registered an IC50 under setting [1] of 0.025 µM.

Turning to `COc1cc(-c2cc(F)cc(Cl)c2)c(C#N)cc1-n1c(=O)ccc2cc(S(=O)(=O)Nc3ccon3)ccc21` (atropisomer, axis not shown; (M)) [Example 434, (M)-1-(3′-chloro-2-cyano-5′-fluoro-5-methoxy-4-biphenylyl)-N-3-isoxazolyl-2-oxo-1,2-dihydro-6-quinolinesulfonamide], the midpoint of inhibition, the IC50, lay at 1.84 µM.

Take `COc1cc(-c2cc(OC)c(-n3c(=O)ccc4cc(S(=O)(=O)Nc5ccnc(C)n5)ccc43)cc2F)ccc1F` [Example 1008, 1-(2,4′-difluoro-3′,5-dimethoxy-4-biphenylyl)-N-(2-methyl-4-pyrimidinyl)-2-oxo-1,2-dihydro-6-quinolinesulfonamide]: the IC50 (in-vitro Nav 1.7 PX data) came out at 0.21 µM.

`COc1cc(-c2ccc(Cl)cc2)c(F)cc1-n1c(=O)ccc2cc(S(=O)(=O)Nc3ncccn3)ccc21` (atropisomer, axis not shown) [Example 598, 1-(4′-chloro-2-fluoro-5-methoxy-4-biphenylyl)-2-oxo-N-2-pyrimidinyl-1,2-dihydro-6-quinolinesulfonamide]: where the note is “in-vitro Nav 1.7 PX data”, half-maximal inhibition (IC50) was put at 0.028 µM.

Where the note is “in-vitro Nav 1.7 PX data”, `COc1cc(-c2cccc(C)c2)ccc1-n1c(=O)ccc2cc(S(=O)(=O)Nc3ncco3)ccc21` [Example 1113, 1-(3-methoxy-3′-methyl-4-biphenylyl)-N-1,3-oxazol-2-yl-2-oxo-1,2-dihydro-6-quinolinesulfonamide] registered an IC50 of 0.044 µM.

For `COc1cc(-c2ccc(C)cc2Cl)c(F)cc1-n1c(=O)ccc2cc(S(=O)(=O)Nc3ccon3)ccc21` [Example 725, 1-(2′-chloro-2-fluoro-5-methoxy-4′-methyl-4-biphenylyl)-N-3-isoxazolyl-2-oxo-1,2-dihydro-6-quinolinesulfonamide], for the setting “in-vitro Nav 1.7 PX data”, the IC50 came to 0.012 µM.

Take `COc1cc(F)cc(-c2ccc(-n3c(=O)ccc4cc(S(=O)(=O)Nc5ncc(F)cn5)ccc43)c(OC)c2)c1` [Example 998, 1-(3′-fluoro-3,5′-dimethoxy-4-biphenylyl)-N-(5-fluoro-2-pyrimidinyl)-2-oxo-1,2-dihydro-6-quinolinesulfonamide]: the IC50 (in-vitro Nav 1.7 PX data) came out at 0.089 µM. Against the preceding molecule, the IC50 is about 7.4-fold higher.

Take `COc1cc(-c2ccc(Cl)c(C)c2)ccc1-n1c(=O)ccc2cc(S(=O)(=O)Nc3cnccn3)ccc21` [Example 659, 1-(4′-chloro-3-methoxy-3′-methyl-4-biphenylyl)-2-oxo-N-2-pyrazinyl-1,2-dihydro-6-quinolinesulfonamide]: the half-maximal inhibitory concentration (IC50) (in-vitro Nav 1.7 PX data) was found to be 0.035 µM.

The molecule `COc1cc(C#CC2CCCC2)c(F)cc1-n1c(=O)ccc2cc(S(=O)(=O)Nc3ncccn3)ccc21` [Example 1134, 1-(4-(cyclopentylethynyl)-5-fluoro-2-methoxyphenyl)-2-oxo-N-2-pyrimidinyl-1,2-dihydro-6-quinolinesulfonamide] displayed an IC50 (in-vitro Nav 1.7 PX data) of 0.026 µM.

In turn, `COc1cc(Br)c(F)cc1-n1c(=O)ccc2cc(S(=O)(=O)Nc3cc(OCC4CCCC4)ncn3)ccc21` (atropisomer, axis not shown; (P)) [Example 1185, (P)-1-(4-bromo-5-fluoro-2-methoxyphenyl)-N-(6-(cyclopentylmethoxy)-4-pyrimidinyl)-2-oxo-1,2-dihydro-6-quinolinesulfonamide] registered an IC50 of 6.64 µM.

As for `COc1cc(-c2ccc(F)cc2)c(F)cc1-n1c(=O)ccc2cc(S(=O)(=O)Nc3cc(C)ncn3)ccc21` [Example 772, 1-(2,4′-difluoro-5-methoxy-4-biphenylyl)-N-(6-methyl-4-pyrimidinyl)-2-oxo-1,2-dihydro-6-quinolinesulfonamide], it took 0.232 µM to reach half-maximal inhibition (in-vitro Nav 1.7 PX data) (IC50).

For the setting “in-vitro PatchXpress (PX)”, `COc1cc(Cl)cc(-c2cc(OC)c(-n3c(=O)ccc4cc(S(=O)(=O)Nc5ccon5)ccc43)cc2F)c1` (atropisomer, axis not shown; (P)) [Example 501, (P)-1-(3′-chloro-2-fluoro-5,5′-dimethoxy-4-biphenylyl)-N-3-isoxazolyl-2-oxo-1,2-dihydro-6-quinolinesulfonamide] registered a concentration for half-maximal inhibition (IC50) of 0.004 µM.

Regarding `CO[C@H]1CCCC[C@@H]1n1c(=O)ccc2cc(S(=O)(=O)Nc3ncns3)ccc21` (racemic) [Example 1145, (±)-1-((1S,2S)-2-methoxycyclohexyl)-2-oxo-N-1,2,4-thiadiazol-5-yl-1,2-dihydro-6-quinolinesulfonamide], the IC50 worked out at 0.471 µM.

Take `COc1cc(C#CC2(O)CCCC2)c(F)cc1-n1c(=O)ccc2cc(S(=O)(=O)Nc3ccon3)ccc21` (atropisomer, axis not shown; (P)) [Example 1233, (P)-1-(5-fluoro-4-((1-hydroxycyclopentyl)ethynyl)-2-methoxyphenyl)-N-3-isoxazolyl-2-oxo-1,2-dihydro-6-quinolinesulfonamide]: the IC50 came out at 0.631 µM.

`COc1cc(-c2cccc(C(F)(F)F)c2)ccc1-n1c(=O)ccc2cc(S(=O)(=O)Nc3cnccn3)ccc21` [Example 915, 1-(3-methoxy-3′-(trifluoromethyl)-4-biphenylyl)-2-oxo-N-2-pyrazinyl-1,2-dihydro-6-quinolinesulfonamide]: inhibition (in-vitro Nav 1.7 PX data) was half-maximal at 0.031 µM (IC50).

As to `COc1cc(-c2ccc(Cl)cc2)c(F)cc1-n1c(=O)ccc2cc(S(=O)(=O)Nc3cc(C)ncn3)ccc21` [Example 752, 1-(4′-chloro-2-fluoro-5-methoxy-4-biphenylyl)-N-(6-methyl-4-pyrimidinyl)-2-oxo-1,2-dihydro-6-quinolinesulfonamide], inhibition (in-vitro Nav 1.7 PX data) was half-maximal at 0.02 µM (IC50).

On to `COc1cc(-c2cccc(F)c2)c(Cl)cc1-n1c(=O)ccc2cc(S(=O)(=O)Nc3nncs3)ccc21` (atropisomer, axis not shown; (M)) [Example 354, (M)-1-(2-chloro-3′-fluoro-5-methoxy-[1,1′-biphenyl]-4-yl)-2-oxo-N-(1,3,4-THIADIAZOL-2-yl)-1,2-dihydroquinoline-6-sulfonamide], for which it took 5.86 µM to reach half-maximal inhibition (IC50).

In turn, `COc1ccc(-c2cc(F)cc(F)c2)cc1-n1c(=O)ccc2cc(S(=O)(=O)Nc3ccon3)ccc21` [Example 865, 1-(3′,5′-difluoro-4-methoxy-3-biphenylyl)-N-3-isoxazolyl-2-oxo-1,2-dihydro-6-quinolinesulfonamide] had an IC50 (in-vitro Nav 1.7 PX data) of 0.053 µM. That is a double-digit nanomolar value.

The record behind these values is patent publication US9212182B2, “Bicyclic sulfonamide compounds as sodium channel inhibitors” (AMGEN INC., priority 2013, dated 2015).
